Measured values from patent publication EP4610262A1, “MACROCYCLIC COMPOUND AS CDK9 INHIBITOR AND USE THEREOF” (Artivila Biopharma, priority 2022, dated 2024).
Read-outs that look alike come from different tables or passages of the source.

Experiments:
[1] = tested on: Mia-Paca-2; assay: CDK9 cell activity assay, cell growth inhibition (CellTiter-Glo, 72 hours); type: cell-based; conditions: Homo sapiens
Procedure: (§1) In the CDK9 cell activity assay, the cell line MV-4-11 was cultured in IMDM culture medium containing 10% fetal bovine serum (containing 100 U/mL penicillin and 0.1 g/L streptomycin); the cell line HCC1187 was cultured in RPMI-1640 culture medium containing 10% fetal bovine serum (containing 100 U/mL penicillin and 0.1 g/L streptomycin); the cell line Mia Paca-2 was cultured in DMEM containing 10% fetal bovine serum and 2.5% horse serum (containing 100 U/mL penicillin and 0.1 g/L streptomycin); and the cell line A375 was cultured in RPMI-1640 culture medium containing 10% fetal bovine serum (containing 100 U/mL penicillin and 0.1 g/L streptomycin). All cells were cultured in an incubator with saturated humidity at 37°C with 5% CO2.
(§2) When MV-4-11 cells, HCC1187 cells, Mia Paca-2 cells, and A375 cells grew to 80%-90% confluence, they were digested with trypsin, resuspended, counted, and diluted to a certain cell density with complete medium. 100 µL of the cells was plated into each well of a 96-well plate, and the complete medium was used as a background control. The cells were cultured overnight in an incubator with saturated humidity at 37°C with 5% CO2. The compounds were diluted with DMSO to a final concentration of 200×. 3 µL of the stock solution of the above compounds in DMSO was added to 197 µL of complete medium, and 50 µL of the compound diluted in the medium was added to the cells of each well. The cells were cultured in an incubator with saturated humidity at 37°C with 5% CO2 for 72 hours. After 72 hours, the culture plates were placed at room temperature for equilibrium. 40 µL of CellTiter-Glo® reagent was added to each well. The plate was mixed evenly on a shaker for 2 minutes to lyse the cells then incubated at room temperature for 60 minutes to stabilize the chemiluminescent signal, and the chemiluminescence was read using a PE EnVision microplate reader. The inhibition rate on cell growth was calculated as % Inh = (DMSO well - compound treatment well) / (DMSO well - background well) x 100, and fitting was performed using GraphPad Prism 5 to obtain the IC50 values against cell growth.

[2] = tested on: MV-4-11; assay: as above; type: cell-based; conditions: Homo sapiens, MV4-11
Procedure: as §1, §2

[3] = tested on: HCC1187; assay: as above; type: cell-based; conditions: Homo sapiens
Procedure: as §1, §2

[4] = tested on: A375; assay: as above; type: cell-based; conditions: Homo sapiens, A-375
Procedure: as §1, §2

[5] = target: CDK9 (Homo sapiens, UniProt P50750); assay: Inhibition of CDK9 kinase activity (caliper mobility shift assay); type: biochemical; conditions: for IC50: 10 concentrations from 10 µM, three-fold dilutions; for inhibition at 0.01 µM: compound at 10 nM
CDK9, sequence (P50750 whole entry): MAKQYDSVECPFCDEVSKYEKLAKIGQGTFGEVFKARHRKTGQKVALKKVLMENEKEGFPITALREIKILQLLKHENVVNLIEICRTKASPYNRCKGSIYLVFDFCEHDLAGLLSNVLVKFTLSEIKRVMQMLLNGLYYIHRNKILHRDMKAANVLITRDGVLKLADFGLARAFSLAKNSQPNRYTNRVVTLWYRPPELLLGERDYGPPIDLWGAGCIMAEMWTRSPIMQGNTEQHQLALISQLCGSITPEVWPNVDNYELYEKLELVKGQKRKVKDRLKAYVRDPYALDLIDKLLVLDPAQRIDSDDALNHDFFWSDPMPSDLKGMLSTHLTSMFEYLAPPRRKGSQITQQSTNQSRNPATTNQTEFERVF
CDK9, sequence (O60563 whole entry partner): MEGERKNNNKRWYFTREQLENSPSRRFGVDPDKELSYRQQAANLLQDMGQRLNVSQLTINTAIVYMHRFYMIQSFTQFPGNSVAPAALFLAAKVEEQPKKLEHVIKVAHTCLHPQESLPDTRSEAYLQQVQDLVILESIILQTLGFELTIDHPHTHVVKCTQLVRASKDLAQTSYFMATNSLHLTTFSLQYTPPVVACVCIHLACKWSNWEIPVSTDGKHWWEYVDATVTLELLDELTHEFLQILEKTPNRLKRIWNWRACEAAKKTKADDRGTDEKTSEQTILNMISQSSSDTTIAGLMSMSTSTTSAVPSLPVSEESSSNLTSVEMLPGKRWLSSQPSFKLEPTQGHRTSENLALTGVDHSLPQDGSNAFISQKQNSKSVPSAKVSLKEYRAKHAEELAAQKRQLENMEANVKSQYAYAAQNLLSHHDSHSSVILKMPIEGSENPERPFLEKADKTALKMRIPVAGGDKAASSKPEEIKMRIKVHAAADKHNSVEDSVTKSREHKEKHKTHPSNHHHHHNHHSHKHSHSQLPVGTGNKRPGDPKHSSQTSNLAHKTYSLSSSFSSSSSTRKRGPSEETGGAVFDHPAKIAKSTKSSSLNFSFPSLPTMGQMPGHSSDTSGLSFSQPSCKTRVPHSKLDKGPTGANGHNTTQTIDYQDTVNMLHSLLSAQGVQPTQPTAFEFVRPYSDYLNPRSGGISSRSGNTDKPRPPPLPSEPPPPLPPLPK
Procedure: (§3) Compounds were tested at a concentration of 10 nM with detection in duplicate wells, or tested at 10 concentrations starting from 10 µM with three-fold serial dilutions, with detection in duplicate wells.
(§4) The inhibitory effect of the compounds on the activity of CDK9 protein kinase was detected by the caliper mobility shift assay method. 250 nL of the compound at 100-fold final concentration was transferred to a target 384-well-plate with a dispenser Echo 550. A kinase solution at 2.5-fold final concentration was prepared using 1× kinase buffer. 10 µL of the kinase solution at 2.5-fold final concentration was added to the compound well and positive control well respectively. 10 µL of 1× kinase buffer was added to the negative control well. The 384-well plate was centrifuged at 1000 rpm for 30 seconds and incubated at room temperature for 10 minutes. A mixed solution of ATP and kinase substrate at 5/3-fold final concentration was prepared with 1× kinase buffer, and to the 384-well plate was added with 15 µL per well of the mixed solution of ATP and substrate at 5/3-fold final concentration to start the reaction. The plate was centrifuged at 1000 rpm for 30 seconds, shaken to mix evenly, and incubated at room temperature for a corresponding time. 30 µL of detection stopping solution was added to terminate the kinase reaction. The 384-well plate was centrifuged at 1000 rpm for 30 seconds and shaken to mix evenly. The conversion rate was read with Caliper EZ Reader. The percent conversion inhibition rate = (% positive control conversion rate mean - % sample conversion rate / (% positive control conversion rate mean - % negative control conversion rate mean). Among them: negative control wells represent the conversion rate readings of kinase buffer background wells; positive control wells represent the conversion rate readings of wells without inhibition by compound. With the log value of concentration as the x-axis and the percentage inhibition rate as the y-axis, a dose-response curve was fitted using the log (inhibitor) vs. response -Variable slope of the analysis software GraphPad Prism 5 to obtain the IC50 value of each compound on enzyme activity. Calculation formula: y=Bottom + (Top-Bottom)/(1+10^((LogIC50-x) × hillslope)), x: logarithm of inhibitor concentration; y: % inhibition rate.

[6] = target: LRRK2 (Homo sapiens, UniProt Q5S007); assay: Kinase selectivity, inhibition rate at 10 nM (caliper mobility shift assay); type: biochemical; conditions: compound at 10 nM
Procedure: as §3, §4
(§5) According to the description of the above experiment on kinase activity inhibition, some compounds were tested for their selective inhibition rate against the kinases of CDK7, CDK9, JAK1, JAK2, JAK3, ITK, RET, TYK2, and LRRK2 at 10 nM. The results are shown in Table 3 below: (Inhibition rate range: A>50%; B: 25-49%; C: <25%): […]

[7] = target: JAK1 (Homo sapiens, UniProt P23458); assay: as above; type: biochemical; conditions: compound at 10 nM
JAK1, sequence (P23458 whole entry): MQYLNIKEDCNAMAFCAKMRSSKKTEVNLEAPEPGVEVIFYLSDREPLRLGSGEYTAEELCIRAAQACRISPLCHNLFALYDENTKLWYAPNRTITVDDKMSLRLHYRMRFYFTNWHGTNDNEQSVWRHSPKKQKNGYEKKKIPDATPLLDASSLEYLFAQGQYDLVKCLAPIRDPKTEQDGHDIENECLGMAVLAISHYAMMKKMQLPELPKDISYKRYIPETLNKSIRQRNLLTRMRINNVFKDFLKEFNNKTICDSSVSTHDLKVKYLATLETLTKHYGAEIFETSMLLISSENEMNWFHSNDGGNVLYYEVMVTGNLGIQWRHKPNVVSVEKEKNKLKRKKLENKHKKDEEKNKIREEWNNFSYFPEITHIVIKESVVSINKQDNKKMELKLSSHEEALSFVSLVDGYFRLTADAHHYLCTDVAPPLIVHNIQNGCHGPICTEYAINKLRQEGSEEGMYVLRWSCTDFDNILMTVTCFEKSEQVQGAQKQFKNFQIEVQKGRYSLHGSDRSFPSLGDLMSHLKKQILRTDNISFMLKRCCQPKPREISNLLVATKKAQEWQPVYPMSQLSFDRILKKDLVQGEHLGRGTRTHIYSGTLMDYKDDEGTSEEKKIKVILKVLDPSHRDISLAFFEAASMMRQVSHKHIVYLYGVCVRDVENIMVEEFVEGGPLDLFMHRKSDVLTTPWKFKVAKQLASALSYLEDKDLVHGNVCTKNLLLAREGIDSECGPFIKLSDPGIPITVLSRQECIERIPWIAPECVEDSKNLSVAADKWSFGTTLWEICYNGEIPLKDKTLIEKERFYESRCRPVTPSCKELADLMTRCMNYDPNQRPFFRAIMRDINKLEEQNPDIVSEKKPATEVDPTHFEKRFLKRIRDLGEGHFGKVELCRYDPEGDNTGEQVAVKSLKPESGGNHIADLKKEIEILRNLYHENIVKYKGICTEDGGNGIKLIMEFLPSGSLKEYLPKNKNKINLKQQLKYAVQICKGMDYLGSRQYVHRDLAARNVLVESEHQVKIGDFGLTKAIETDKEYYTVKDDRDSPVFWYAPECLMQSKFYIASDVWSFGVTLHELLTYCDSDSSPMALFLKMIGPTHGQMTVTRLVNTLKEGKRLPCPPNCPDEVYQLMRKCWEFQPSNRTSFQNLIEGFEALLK
Procedure: as §3, §4, §5

[8] = target: JAK2 (Homo sapiens, UniProt O60674); assay: as above; type: biochemical; conditions: compound at 10 nM
JAK2, sequence (O60674 whole entry): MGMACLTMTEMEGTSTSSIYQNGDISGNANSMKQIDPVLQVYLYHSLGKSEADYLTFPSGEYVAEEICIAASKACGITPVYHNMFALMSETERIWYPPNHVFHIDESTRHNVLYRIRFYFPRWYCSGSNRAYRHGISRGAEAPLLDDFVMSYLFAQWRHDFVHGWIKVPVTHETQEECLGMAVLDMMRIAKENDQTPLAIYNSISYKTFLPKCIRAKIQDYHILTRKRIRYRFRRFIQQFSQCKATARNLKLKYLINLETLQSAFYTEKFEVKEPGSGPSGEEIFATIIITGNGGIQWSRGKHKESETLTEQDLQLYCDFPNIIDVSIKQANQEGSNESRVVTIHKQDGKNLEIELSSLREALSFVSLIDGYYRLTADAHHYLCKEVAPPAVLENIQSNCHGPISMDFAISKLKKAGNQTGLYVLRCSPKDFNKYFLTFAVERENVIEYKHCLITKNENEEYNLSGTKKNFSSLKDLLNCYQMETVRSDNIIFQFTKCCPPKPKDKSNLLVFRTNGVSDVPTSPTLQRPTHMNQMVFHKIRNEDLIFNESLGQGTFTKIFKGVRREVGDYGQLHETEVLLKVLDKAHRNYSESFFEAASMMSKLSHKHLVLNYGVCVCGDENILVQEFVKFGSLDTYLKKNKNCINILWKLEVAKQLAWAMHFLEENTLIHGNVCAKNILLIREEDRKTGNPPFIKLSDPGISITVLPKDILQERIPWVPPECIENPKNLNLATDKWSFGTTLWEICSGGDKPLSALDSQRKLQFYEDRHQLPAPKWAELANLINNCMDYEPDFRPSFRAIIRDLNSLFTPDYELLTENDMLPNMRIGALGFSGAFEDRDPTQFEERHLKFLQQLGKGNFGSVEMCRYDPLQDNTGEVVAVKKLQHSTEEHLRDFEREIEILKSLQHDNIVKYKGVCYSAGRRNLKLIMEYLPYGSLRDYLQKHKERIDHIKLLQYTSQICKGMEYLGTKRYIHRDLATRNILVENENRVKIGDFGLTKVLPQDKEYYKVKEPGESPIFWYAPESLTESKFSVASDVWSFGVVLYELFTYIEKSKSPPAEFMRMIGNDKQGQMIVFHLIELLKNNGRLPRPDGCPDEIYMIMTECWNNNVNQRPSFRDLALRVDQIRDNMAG
Procedure: as §3, §4, §5

[9] = read-out: Inhibition rate on CDK9 kinase activity
[10] = selectivity panel Table 3, read-out: Inhibition rate CDK9

CN1CCCCCNc2nc(ncc2Cl)Nc2cccc(c2)C1 [Compound 10, 1^5-chloro-5-methyl-2,5,11-triaza-1(2,4)-pyrimidina-3(1,3)-benzene cycloundecane]
IC50 [1]: 0.25 to 1 µM
IC50 [2]: < 0.25 µM
IC50 [3]: 1 to 5 µM
IC50 [4]: 0.25 to 1 µM
IC50 [5]: < 0.1 µM
inhibition at 0.01 µM [5, 9]: 25 to 49%

Cc1ccc2cc1-c1nc(ncc1Cl)Nc1cccc(c1)NC/C=C\CN2 [Compound 12, (Z)-2^5-chloro-1^6-methyl-3,5,10-triaza-2(4,2)-pyrimidina-1,4(1,3)-dibenzocyclodecane-7-ene]
inhibition at 0.01 µM [6]: < 25%
inhibition at 0.01 µM [7]: < 25%
inhibition at 0.01 µM [8]: < 25%
IC50 [1]: < 0.25 µM
IC50 [2]: < 0.25 µM
IC50 [3]: < 0.25 µM
IC50 [4]: < 0.25 µM
IC50 [5]: < 0.1 µM
inhibition at 0.01 µM [5, 10]: > 50%
inhibition at 0.01 µM [5, 9]: > 50%

N#Cc1cnc2nc1NCCCCCNCc1cccc(c1)N2 [Compound 15, 2,5,11-triaza-1(2,4)-pyrimidina-3(1,3)-benzenacycloundecaphan-1^5-carbonitrile]
inhibition at 0.01 µM [6]: < 25%
inhibition at 0.01 µM [7]: < 25%
inhibition at 0.01 µM [8]: < 25%
IC50 [5]: < 0.1 µM
inhibition at 0.01 µM [5, 10]: 25 to 49%
inhibition at 0.01 µM [5, 9]: 25 to 49%

Clc1cnc2nc1OCCCCCNCc1cccc(c1)N2 [Compound 18, 1^5-chloro-11-oxa-2,5-diaza-1(2,4)-pyrimidina-3(1,3)-benzenacyclodecaphane]
inhibition at 0.01 µM [7]: < 25%
inhibition at 0.01 µM [8]: < 25%
IC50 [2]: < 0.25 µM
IC50 [5]: < 0.1 µM
inhibition at 0.01 µM [5, 10]: > 50%
inhibition at 0.01 µM [5, 9]: > 50%
